Assay results published in patent publication US4868190A, “N-pyridinyl-9H-carbazol-9-amines” (Hoechst-Roussel Pharmaceuticals, Inc., priority 1988, dated 1989).
Where two headings read alike, the source gives them in different places.

Tests used:
[1] = system: sensitivity of mice to pressure stress (artery clip on tail); test: Modified Haffner's analgesia (artery clip on tail); assay type: in vivo, mice (male, Charles River, CD-1); conditions: Mus musculus, sc, read-out: Modified Haffner's Analgesia ED50
Source text: The latter assay is used to evaluate analgesic activity by measuring drug-induced changes in the sensitivty of mice to pressure stress by placing an artery clip (21/2 inches long) on their tail. The procedure used is a modification of the test developed by Haffner, Dtsch. Med. Wschr. 55, 731 (1929), and it is described below:
Male mice (Charles River, CD-1) from 18-30 grams are used for the test. An artery clip is applied to the root of the tail of a mouse (approximately 1/2 inch from the body) to induce pain. The animals quickly responds to this noxious stimuli by biting the clip or the location of the clip. This reaction time, the interval between stimulus onset and response, is recorded on 1/10 second increments by a stop watch.
For a time response, the screening dose (25 mg/kg) is administered subcutaneously (10 ml/kg) to the animal receiving food and water ad libitum before testing. Animals receiving the compound orally are fasted 18-24 hours before drug administration. Drug to be tested is prepared with distilled water and if insoluble, one drop of a surfactant is added.
Twenty-eight animals (seven/group) are administered the drug 15, 30, 45 and 60 minutes prior to testing.
The cut-off time (CO) is determined by taking the (x) average+3 standard (SD) deviation of the combined response latencies of the control mice in all time periods.
Any reaction time, in subsequent drug tests, which is greater than the CO (for the same time period) therefore exceeds 99% of normal Gaussian distribution and is called "positive response" indicative of analgesic activity. A time response indicates the period of greatest analgesic effect after dosing. The ED50 is determined at the peak time of drug activity. A minimum of three dose groups are used. ED50 's are calcualted using computer analysis.

[2] = system: 2-phenyl-1,4-benzoquinone-induced writhing; test: 2-phenyl-1,4-benzoquinone-induced writhing (PQW) test in mice; assay type: in vivo; conditions: Mus musculus, sc, read-out: PQW ED50
Source text: Compounds I of the present invention are useful as analgesic agents due to their ability to alleviate pain in mammals. […] Exptl. Biol. Med., 95, 729 (1957)] and in modified Haffner's analgesia.

[3] = system: tetrabenazine-induced ptosis; test: Prevention of Tetrabenazine-Induced Ptosis in Mice; assay type: in vivo, mice (male); conditions: Mus musculus, po, read-out: Antidepressant activity ED50
Source text: The test method and results are described below.
Tetrabenazine (TBZ) induces behavioral depression with concomitant ptosis in mice similar to reserpine. Antidepressant compounds, both monoamineoxidase inhibitors and tricyclics, are known to prevent or antagonize these effects and the degree of antagonism correlates with clinical efficacy. The prevention of […] ptosis in mice is used as a preliminary screen for possible antidepressant activity. The method used in this invention is as follows:
Male mice weighing 20 to 30 grams are used in test groups of five subjects. All compounds are dissolved or suspended with a suitable surfactant in distilled water and administered in volumes of 10 ml/kg of body weight. TBZ solution is made from the methanesulfonate salt and the concentration is adjusted to enable administration of 60 mg/kg of base by intraperitoneal (i.p.) injection.
The pretreatment time is measured from the time of dosing to observation. Therefore, when a 30-minute pretreat is utilized, drug and TBZ are given simultaneously. A control group received solvent and TBZ at intervals identical to drug group. For a primary screen, the drug is administered i.p. and a group size of five is utilized. Eight animals/group are used for a dose range.
The total score for each group of five in a primary screen will, therefore, be from 0 to 20 and these scores are used as indications of drug activity.
The vehicle control group score is used as a determinant of the validity of each test. […] The calculation of percent inhibition of ptosis is: [formula]

[4] = system: scopolamine induced memory deficit; test: Dark Avoidance Assay (scopolamine-induced memory deficit); assay type: in vivo; conditions: mice, 24 hours
Protocol: In this assay mice are tested for their ability to remember an unpleasant stimulus for a period of 24 hours. A mouse is placed in a chamber that contains a dark compartment; a strong incandescent light drives it to the dark compartment, where an electric shock is administered through metal plates on the floor. The animal is removed from the testing apparatus and tested again, 24 hours later, for the ability to remember the electric shock. If scopolamine, an anticholinergic that is known to cause memory impairment, is administered before an animal's initial exposure to the test chamber, the animal re-enters the dark compartment shortly after being placed in the test chamber 24 hours later.

[5] = system: supramaximal electroshock (extensor tonus); test: Anticonvulsant activity, supramaximal electroshock (SES) assay; assay type: in vivo; conditions: ip; male mouse, at peak activity time
Protocol: Compounds I of the present invention are also useful as anticonvulsant agents due to their anticonvulsant activity in mammals. Anticonvulsant activity is measured in the male mouse using the supramaximal electroshock (SES) assay described in Arch. Int. Pharmacodyn. 92:97-107, 1952. In this procedure groups of animals are used. Drugs are prepared using distilled water and, if insoluble, a surfactant is added. Control animals receive vehicle. Drugs are routinely administered intraperitoneally (i.p.). The dosage volume is 10 ml/kg. A primary screen is given a 30 minute pretreat. The animal's eyes are placed across the output terminals of an A.C. shocker that delivers 206 volts rms for 300 msec. Electrode paste coats the animals eyes at the point of contact with the terminals. […] Protection is expressed as normalized percent inhibition relative to vehicle control.
A time response is carried out using six animals/group. Animals are tested at 30, 60 and 120 minutes postdrug. Additional time periods are tested if indicated by previous tests. When the peak activity time has been determined, a dose response is initiated using 10 animals/group at that time period. The ED50 and 95% confidence interval are calculated by computer probit analysis.

[6] = mice, s.c., at peak time of drug activity

Row | Compound | ED50 [1, 6] | ED50 ([2]; mice, s.c.) | ED50 ([3]; mice, p.o., TBZ 60 mg/kg i.p.) | also measured
1 | Brc1ccc2c(c1)c1ccccc1n2Nc1ccncc1.O=C(O)/C=C\C(=O)O [3-Bromo-N-(4-pyridinyl)-9H-carbazol-9-amine maleate] | 1.1 mg/kg | 1.2 mg/kg | 7.6 mg/kg | % of animals with scopolamine induced memory deficit reversal ([4]; dose 0.31 mg/kg body weight): 33%
2 | O=C1CC2(CCCC2)CC(=O)N1CCCCN(c1ccncc1)n1c2ccccc2c2ccccc21 [8-[4-(9H-carbazol-9-yl-4-pyridinylamino)butyl]-8-azaspiro[4.5]decane-7,9-dione] | – | – | – | % of animals with scopolamine induced memory deficit reversal ([4]; dose 5.0 mg/kg body weight): 60%
3 | CNC1=Nc2ccc(Cl)cc2C(c2ccccc2)=[N+]([O-])C1 [Chlordiazepoxide, reference compound] | – | – | – | ED50 [5]: 8 mg/kg
4 | CNCCCN1c2ccccc2CCc2ccccc21 [Desipramine, reference compound] | – | – | – | ED50 [3]: 2.3 mg/kg
5 | C=CCN(c1ccncc1)n1c2ccccc2c2ccccc21.O=C(O)/C=C\C(=O)O [N-(2-Propenyl)-N-(4-pyridinyl)-9H-carbazol-9-amine maleate] | 1.2 mg/kg | 1 mg/kg | 3.7 mg/kg | –
6 | Cl.Fc1cnccc1Nn1c2ccccc2c2ccccc21 [N-(3-Fluoro-4-pyridinyl)-9H-carbazol-9-amine hydrochloride] | 0.7 mg/kg | 1.3 mg/kg | – | –
7 | CCCN(c1ccncc1F)n1c2ccccc2c2ccccc21 [N-(3-Fluoro-4-pyridinyl)-N-propyl-9H-carbazol-9-amine] | – | – | – | % of animals with scopolamine induced memory deficit reversal ([4]; dose 1.25 mg/kg body weight): 27%
8 | O=C(O)/C=C\C(=O)O.c1ccc2c(c1)c1ccccc1n2Nc1ccncc1 [N-(4-Pyridinyl)-9H-carbazol-9-amine maleate] | 0.4 mg/kg | 0.5 mg/kg | 2.3 mg/kg | ED50 [5]: 23.4 mg/kg
9 | CCCCN(c1ccncc1)n1c2ccccc2c2ccccc21.Cl [N-(Butyl)-N-(4-pyridinyl)-9H-carbazol-9-amine hydrochloride] | – | – | 5.2 mg/kg | % of animals with scopolamine induced memory deficit reversal ([4]; dose 0.63 mg/kg body weight): 33%
10 | CCCN(c1ccncc1)n1c2ccccc2c2ccccc21.O=C(O)/C=C\C(=O)O [N-(Propyl)-N-(4-pyridinyl)-9H-carbazol-9-amine maleate] | 9.8 mg/kg | 4.3 mg/kg | 1.5 mg/kg | ED50 [5]: 16.9 mg/kg; % of animals with scopolamine induced memory deficit reversal ([4]; dose 2.5 mg/kg body weight): 33%
11 | CCN(c1ccncc1)n1c2ccccc2c2ccccc21.O=C(O)/C=C\C(=O)O [N-Ethyl-N-(4-pyridinyl)-9H-carbazol-9-amine maleate] | 4.3 mg/kg | 1.1 mg/kg | 2.2 mg/kg | ED50 [5]: 6.4 mg/kg
12 | CN(c1ccncc1)n1c2ccccc2c2ccccc21.O=C(O)/C=C\C(=O)O [N-Methyl-N-(4-pyridinyl)-9H-carbazol-9-amine maleate] | 0.19 mg/kg | 0.1 mg/kg | 1.5 mg/kg | –
13 | CC(C)=CCN1CCC2(C)c3cc(O)ccc3CC1C2C (stereo not shown) [Pentazocin, reference compound] | – | – | – | ED50 [1]: 3.9 mg/kg; ED50 [2]: 1.3 mg/kg
14 | CNC(=O)Oc1ccc2c(c1)[C@]1(C)CCN(C)[C@@H]1N2C [Physostigmine, reference compound] | – | – | – | % of animals with scopolamine induced memory deficit reversal ([4]; dose 0.31 mg/kg body weight): 20%
